# Results as given in US12303518B2, “System for providing birth control” (The Population Council, Inc., priority 2019, dated 2025).
# Like-named read-outs stand apart in the source and are kept apart here.
# Assays:
# SHBG = assay: Effect on serum concentrations of SHBG; conditions: in vivo
# [1] = in vivo; cited from earlier work
# [2] = Recoverable SA and EE after storage; format: physicochemical; conditions: for amount recoverable from the vaginal system: 24 months of storage at 25° C. and 60% relative humidity
# Description: This was quite surprising as a similar trend was not observed during long-term stability studies on the cores before assembly.
# • Diluent: methanol/water 58/42 v/v • Dried NES and EE before weighing (100-105° C. 3 h) • EE stock solution: Dissolved 25.0 mg of EE and diluted to 250.0 mL with methanol (duplicates, EE1 and EE2) • NES stock solution: Dissolved 50.0 mg of NES and diluted to 100.0 mL with methanol (duplicates, NES1 and NES2) • Standard solutions: • S1: Diluted 5.0 mL of NES1 and 4.0 mL of EE1 to 50.0 mL with diluent • S2: Diluted 6.0 mL of NES2 and 5.0 mL of EE2 to 50.0 mL with diluent • S3: Diluted 8.0 mL of NES1 and 7.0 mL of EE1 to 50.0 mL with diluent • S4: Diluted 10.0 mL of NES2 and 9.0 mL of EE2 to 50.0 mL with diluent • System suitability solution (SST solution): Diluted 5.0 mL acetone+7.0 mL NES1+6.0 mL EE1 to 50.0 mL with diluent. Extraction Procedure: • Rings were cut into 8 pieces and each piece was divided lengthwise then transferred to an Erlenmeyer flask. • 140 mL of acetone (weight of flask was noted before and after acetone addition) was added to the flask. […] Liquid Chromatography Column • analytical column: Discovery C8, 5 μm, 150×4.6 mm (Supelco) • pre-column: Supelguard, Discovery C8, 5 μm, 20×4.0 mm (Supelco) • stationary phase: endcapped C8 (5 μm particle size) USP L7 • temperature: 30° C. • Mobile phase: methanol/water 58/42, isocratic elution • Flow rate: 1.2 mL/min • Detection (assay): NES UV 240 nm, EE UV 280 nm • Detection (identity): PDA (photodiode array detector) scanning 220-310 nm, NES 240 nm, EE 280 nm • Injection: 20 μL • Run time: 15 min • System suitability: SST solution • Area precision (n=5): RSD (%)≤2.0 • Peak tailing (T): 0.8≤T≤1.5 • Blank injections: No interfering peaks • Retention times: EE approximately 7 min and NES approximately 9 min • Results Assay: Report the average value of three different rings and express as mg EE/ring and mg NES/ring. • Results Content uniformity: Calculate the average value of ten different rings. […]
# [3] = Pharmacokinetics of the vaginal system in 39 women over up to 13 product-use cycles; format: in vivo; parameters: concentration or dose not given beside the values; conditions: female, human, serum
# Description: The pharmacokinetics (PK) of the vaginal system described herein were determined in 39 women who used the system for up to 13 product-use cycles. […] Over subsequent product-use cycles, the peak serum concentrations of SA and EE declined. Serum concentration-time profiles of SA and EE for product-pse cycles 1, 3, and 13 of system use are provided in FIG. 1 and FIG. 2 with PK parameters summarized in Table 8 and Table 9.
# [4] = PK study in females with BMI<25 vs BMI>25 kg/m^2; format: in vivo, human; conditions: 18 females BMI<25 vs 21 females BMI>25 kg/m^2
# Excerpt: The vaginal system described herein has not been adequately evaluated in females with a body mass index of >29 kg/m2. […] Higher body weight associates with lower systemic exposure of SA and EE. In a PK study conducted in 18 females with BMI<25 (16.89-24.34) kg/m^2 and 21 females with BMI>25 (25.15-37.46) kg/m^2, up to 16% and 33% decreases in the systemic exposure (AUC0-21day) of SA and EE, respectively, were observed between the two BMI groups.
# [5] = Drug-drug interaction study with vaginal miconazole formulations; format: in vivo, human; conditions: concurrent water-based vaginal miconazole cream
# Excerpt: However, the use of either the 1 day or the 3-day oil-based miconazole suppository was associated with an overall increase in exposure up to 67% for EE and 32% for SA. Considering the potential long-term effect on vaginal system performance, concurrent use of oil-based vaginal suppositories should not occur with the system's use. If there is a need to treat a vaginal condition, water-based vaginal cream or oral therapy may be used concurrently with the vaginal system.
# rats = assay: Return to fertility study in rats with subdermal implants; format: in vivo, rat; conditions: 7 weeks after cessation of treatment
# Description: A return to fertility study was conducted with segesterone acetate in rats, using subdermal implants releasing a dose approximately 25 times the anticipated daily vaginal human dose (based on body surface area).
# [6] = system: Chinese hamster ovary cells; assay: Chromosomal aberration assay; format: cell-based
# [7] = biological target: T1, sex hormone-binding globulin (SHBG) (Homo sapiens, UniProt P04278); assay: Binding to sex hormone-binding globulin
# T1 sequence (P04278 30-402): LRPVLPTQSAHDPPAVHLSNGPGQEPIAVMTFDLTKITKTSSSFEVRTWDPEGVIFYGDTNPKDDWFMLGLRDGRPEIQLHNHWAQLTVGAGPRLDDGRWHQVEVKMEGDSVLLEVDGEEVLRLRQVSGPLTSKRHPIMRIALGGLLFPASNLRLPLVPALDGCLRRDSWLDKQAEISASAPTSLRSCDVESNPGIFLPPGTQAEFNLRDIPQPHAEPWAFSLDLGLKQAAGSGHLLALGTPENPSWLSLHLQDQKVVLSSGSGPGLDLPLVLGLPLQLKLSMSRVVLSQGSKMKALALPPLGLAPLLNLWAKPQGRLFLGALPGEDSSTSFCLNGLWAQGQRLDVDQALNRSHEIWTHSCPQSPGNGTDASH
# mouse = assay: In vivo mouse micronucleus test
# CYP enzymes = assay: In vitro CYP inhibition/induction studies; format: in vitro ADME; conditions: therapeutic dose
# [8] = Solubility in solvents (descriptive); format: physicochemical; conditions: USP classification
# Salmonella = assay: Ames/Salmonella reverse mutation assay; format: cell-based
structure (smiles),measurement,setting,value
"C#C[C@]1(O)CC[C@H]2[C@@H]3CCc4cc(O)ccc4[C@H]3CC[C@@]21C [EE, 19-nor-17α-pregna-1,3,5(10)-trien-20-yne-3,17-diol]",effect on serum concentrations of SHBG,SHBG,induces an increase in the serum concentrations of SHBG
same,excretion route,[1],excreted in the urine and feces as glucuronide and sulfate conjugates
same,primary metabolic route,[1],primarily metabolized by aromatic hydroxylation
same,amount recoverable from the vaginal system,[2],decreased in a time-dependent manner
same,amount recoverable from the core by extraction,"[2]; cores before assembly, extended storage",full amount of EE was found to be recoverable
same,AUC(0-t),"[3]; Cycle 1, mean (SD), read-out: AUC0−1 day",2.1 ng·h/mL
same,AUC(0-t),"[3]; Cycle 1, mean (SD), read-out: AUC0−21day",22.2 ng·h/mL
same,AUC(0-t),"[3]; Cycle 3, mean (SD), read-out: AUC0−1 day",0.9 ng·h/mL
same,AUC(0-t),"[3]; Cycle 3, mean (SD), read-out: AUC0−21day",14.7 ng·h/mL
same,AUC(0-t),"[3]; Cycle 13, mean (SD), read-out: AUC0−1 day",0.7 ng·h/mL
same,AUC(0-t),"[3]; Cycle 13, mean (SD), read-out: AUC0−21day",9.6 ng·h/mL
same,decrease in systemic exposure (AUC0-21day) between the two BMI groups,[4],≤ 33%
same,change in exposure from the vaginal system,[5],no change in exposure
"C=C1C[C@H]2[C@@H]3CCC4=CC(=O)CC[C@@H]4[C@H]3CC[C@]2(C)[C@@]1(OC(C)=O)C(C)=O [SA, 16-methylene-17α-acetoxy-19-nor-pregn-4-ene-3,20-dione]",effects on ovulation or litter parameters,rats,no adverse effects on ovulation or resulting litter parameters
same,mutagenicity/clastogenicity,[6],neither mutagenic nor clastogenic
same,amount recoverable from the vaginal system,[2],remained essentially constant
same,binding affinity for sex hormone-binding globulin (SHBG),[7],negligible binding affinity
same,mutagenicity/clastogenicity,mouse,neither mutagenic nor clastogenic
same,CYP enzyme inhibition or induction,CYP enzymes,unlikely to inhibit or induce CYP enzymes
same,solubility,[8]; acetone,freely soluble
same,solubility,[8]; ethyl acetate,soluble
same,solubility,[8]; methanol,soluble
same,solubility,[8]; n-hexane,slightly soluble
same,decrease in systemic exposure (AUC0-21day) between the two BMI groups,[4],up to 16%
same,mutagenicity/clastogenicity,Salmonella,neither mutagenic nor clastogenic
same,change in exposure from the vaginal system,[5],no change in exposure
